How the values were obtained:
[1] = Inhibition of chimpanzee P2Y14 receptor; parameters: species or system Pan troglodytes
[2] = molecular target: T1, P2Y purinoceptor 14 (Mus musculus, UniProt Q9ESG6); experiment: Inhibition of mouse P2Y14 receptor
T1 sequence (Q9ESG6 whole entry): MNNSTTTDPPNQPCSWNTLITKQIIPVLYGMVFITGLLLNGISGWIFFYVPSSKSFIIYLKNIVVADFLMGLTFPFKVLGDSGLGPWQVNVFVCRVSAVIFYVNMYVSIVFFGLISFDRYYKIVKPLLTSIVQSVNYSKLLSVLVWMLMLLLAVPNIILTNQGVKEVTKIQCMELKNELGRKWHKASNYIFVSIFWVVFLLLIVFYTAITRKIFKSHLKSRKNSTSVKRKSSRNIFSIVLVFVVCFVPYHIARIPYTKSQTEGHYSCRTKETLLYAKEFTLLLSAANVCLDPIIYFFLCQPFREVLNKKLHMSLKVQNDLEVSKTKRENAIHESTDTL

[3] = Half life in C57BL/6 mouse at 50 mg/kg, po; format: ADME, organism-based; conditions: in vivo
[4] = molecular target: T1, P2Y purinoceptor 14; experiment: Inhibition of mouse P2Y14 receptor in presence of 2% HSA
[5] = Clearance in C57BL/6 mouse at 50 mg/kg, po; format: ADME, organism-based; conditions: in vivo

Structure (SMILES): Cc1cc(F)cc(C)c1COc1ccc2c(-c3ccsc3)cc(C(=O)O)cc2c1
- IC50 [1]: 4 nM
- Ki [1]: 14 nM

Structure (SMILES): O=C(O)c1cc(-c2ccc([C@@H](O)C(F)F)cc2)c2ccc(-c3ccc(C(F)(F)F)cc3)cc2c1
- Ki [2]: 4 nM
- half-life [3]: 3 h
- Ki [4]: 1290 nM
- CL/F [5]: 0.096 L/h/kg

Structure (SMILES): O=C(O)c1cc(-c2ccc(C3CCNCC3)cc2)c2ccc(-c3ccc(C(F)(F)F)cc3)cc2c1 [PPTN]
- Ki [1]: 1.9 nM

— ChEMBL document CHEMBL4346722, “Recent progress on the discovery of P2Y14 receptor antagonists” (Eur J Med Chem, 2019)
